These compounds were tested against CRBN-DDB1 (Homo sapiens, UniProt Q96SW2) (assay: HTRF binding of compounds to CRBN). Conditions: not given.
CRBN-DDB1, sequence (Q96SW2 whole entry): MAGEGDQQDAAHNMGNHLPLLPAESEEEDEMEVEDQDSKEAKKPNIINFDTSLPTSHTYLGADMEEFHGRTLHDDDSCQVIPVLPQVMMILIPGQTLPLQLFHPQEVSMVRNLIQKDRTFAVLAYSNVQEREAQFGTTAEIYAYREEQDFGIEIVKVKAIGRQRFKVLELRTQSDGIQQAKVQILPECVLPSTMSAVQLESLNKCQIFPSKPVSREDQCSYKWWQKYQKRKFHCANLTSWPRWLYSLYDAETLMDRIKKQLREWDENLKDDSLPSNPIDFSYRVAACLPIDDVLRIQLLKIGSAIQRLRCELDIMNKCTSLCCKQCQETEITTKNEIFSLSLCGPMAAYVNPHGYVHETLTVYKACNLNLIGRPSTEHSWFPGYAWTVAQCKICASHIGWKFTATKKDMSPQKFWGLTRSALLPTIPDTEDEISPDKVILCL
CRBN-DDB1, sequence (Q16531 whole entry partner): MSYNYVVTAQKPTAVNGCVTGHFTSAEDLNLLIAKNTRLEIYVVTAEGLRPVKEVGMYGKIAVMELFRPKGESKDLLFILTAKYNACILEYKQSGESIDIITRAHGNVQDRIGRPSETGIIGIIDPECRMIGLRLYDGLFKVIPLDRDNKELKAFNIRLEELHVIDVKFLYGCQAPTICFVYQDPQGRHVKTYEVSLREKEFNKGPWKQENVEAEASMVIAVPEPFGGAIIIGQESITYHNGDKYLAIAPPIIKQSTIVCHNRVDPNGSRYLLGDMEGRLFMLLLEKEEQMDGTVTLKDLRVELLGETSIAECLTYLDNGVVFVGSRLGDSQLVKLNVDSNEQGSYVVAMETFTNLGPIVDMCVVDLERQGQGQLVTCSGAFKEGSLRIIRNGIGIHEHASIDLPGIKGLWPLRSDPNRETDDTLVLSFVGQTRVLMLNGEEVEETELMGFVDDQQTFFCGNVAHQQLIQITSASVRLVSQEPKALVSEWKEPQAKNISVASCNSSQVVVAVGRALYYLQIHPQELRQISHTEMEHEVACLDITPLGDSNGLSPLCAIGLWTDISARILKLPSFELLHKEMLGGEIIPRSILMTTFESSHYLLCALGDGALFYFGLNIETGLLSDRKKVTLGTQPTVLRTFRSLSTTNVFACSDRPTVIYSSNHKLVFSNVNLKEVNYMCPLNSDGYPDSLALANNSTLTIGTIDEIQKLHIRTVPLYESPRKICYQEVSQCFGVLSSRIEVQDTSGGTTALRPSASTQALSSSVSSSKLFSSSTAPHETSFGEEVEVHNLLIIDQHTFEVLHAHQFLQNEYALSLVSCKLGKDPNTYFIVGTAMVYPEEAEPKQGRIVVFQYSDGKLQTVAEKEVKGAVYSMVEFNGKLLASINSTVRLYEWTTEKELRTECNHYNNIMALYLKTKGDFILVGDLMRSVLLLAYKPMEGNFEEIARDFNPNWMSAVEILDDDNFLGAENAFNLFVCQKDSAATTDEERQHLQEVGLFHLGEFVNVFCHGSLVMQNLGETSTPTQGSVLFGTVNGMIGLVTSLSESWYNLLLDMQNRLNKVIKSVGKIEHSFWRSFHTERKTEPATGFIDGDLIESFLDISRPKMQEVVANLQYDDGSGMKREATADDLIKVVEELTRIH
Procedure: Compound activity was monitored in a Homogenous Time-Resolved Fluorescence (HTRF) assay using 1-[5-({2-[2-(2-{[2-(2,6-dioxopiperidin-3-yl)-1,3-dioxo-2,3-dihydro-1H-isoindol-4-yl]oxy}acetamido)ethoxy]ethyl}carbamoyl)pentyl]-3,3-dimethyl-2-[(1E,3E)-5-[(2E)-1,3,3-trimethyl-5-sulfo-2,3-dihydro-1H-indol-2-ylidene]penta-1,3-dien-1-yl]-3H-indol-1-ium-5-sulfonate as a fluorescent probe. […] Compounds were stored in dry, ambient temperatures at 10 mM. A 10-point, 1:3 dilution series was prepared from 10 mM stock concentrations in Echo-compatible LDV plates. 10 nL of each compound dilution series was dispensed into assays wells using an Echo 650 (Labcyte inc. USA). […] The assay was then allowed to incubate for 30 min at ambient temperature after transferring compound. […] Analysis and IC50 values were derived using KNIME analytics (KNIME Zurich) transformation and fitting within Collaborative Drug Discovery (Collaborative Drug Discovery USA). Ki was derived from the geometric mean of the IC50 values using the Cheng-Prustoff transformation.
With O=C1CCC(N2Cc3ccc(COC(=O)NC4CN(Cc5ccccc5)C4)cc3C2=O)C(=O)N1 (stereo not shown) [Compound 168] the IC50 was 100 to 1000 nM. Compound Cc1cc(F)c(NC(=O)OCc2ccc3c(c2)C(=O)N(C2CCC(=O)NC2=O)C3)cc1C(F)(F)F (stereo not shown) [Compound 233] has an IC50 of 100 to 1000 nM. Compound O=C1CCC(N2Cc3ccc(COC(=O)NC45CC(F)(C4)C5)cc3C2=O)C(=O)N1 (stereo not shown) [Compound 190] has an IC50 of 100 to 1000 nM. Compound O=C1CCC(N2Cc3ccc(COC(=O)Nc4cccc5c4OCC5)cc3C2=O)C(=O)N1 (stereo not shown) [Compound 173] has an IC50 of 100 to 1000 nM. CCOc1cc(NC(=O)OCc2ccc3c(c2)C(=O)N(C2CCC(=O)NC2=O)C3)c(F)cc1C (stereo not shown) [Compound 228] showed an IC50 of under 100 nM. Compound Cc1cc(NC(=O)OCc2ccc3c(c2)C(=O)N(C2CCC(=O)NC2=O)C3)cc(Cl)c1C#N (stereo not shown) [Compound 177, (2-(2,6-dioxopiperidin-3-yl)-3-oxoisoindolin-5-yl)methyl(3-chloro-4-cyano-5-methylphenyl)carbamate] has an IC50 of 100 to 1000 nM. With O=C1CCC(N2Cc3ccc(COC(=O)NC45CC(N6CCCCC6)(C4)C5)cc3C2=O)C(=O)N1 (stereo not shown) [Compound 198] the IC50 was 100 to 1000 nM. With CC(C)(C)c1ccc(F)c(NC(=O)OCc2ccc3c(c2)C(=O)N(C2CCC(=O)NC2=O)C3)c1 (stereo not shown) [Compound 235] the IC50 was 100 to 1000 nM. In the case of O=C1CCC(N2Cc3ccc(COC(=O)Nc4ccc(C(O)C(F)(F)F)nc4)cc3C2=O)C(=O)N1 (stereo not shown) [Compound 238], the IC50 is reported as 100 to 1000 nM. O=C1CCC(N2Cc3ccc(COC(=O)Nc4cccc(OC(F)(F)F)c4F)cc3C2=O)C(=O)N1 (stereo not shown) [Compound 169] was tested, and the IC50 was 100 to 1000 nM.

Same assay, conditions: read-out: HTRF Class (Cereblon binding, HTRF IC50)
With O=C1CCC(N2Cc3ccc(COC(=O)Nc4ccc(C(O)C(F)(F)F)cc4)cc3C2=O)C(=O)N1 (stereo not shown) [Compound 209, (2-(2,6-dioxopiperidin-3-yl)-3-oxoisoindolin-5-yl)methyl (4-(2,2,2-trifluoro-1-hydroxyethyl)phenyl) carbamate] the IC50 was 100 to 1000 nM. In the case of O=C1CCC(N2Cc3ccc(COC(=O)NC45CC(N6CCOCC6)(C4)C5)cc3C2=O)C(=O)N1 (stereo not shown) [Compound 215, (2-(2,6-dioxopiperidin-3-yl)-3-oxoisoindolin-5-yl)methyl (3-morpholinobicyclo[1.1.1]pentan-1-yl)carbamate], the IC50 is reported as 100 to 1000 nM. Cc1cc(F)c(NC(=O)OCc2ccc3c(c2)C(=O)N(C2CCC(=O)NC2=O)C3)cc1Br (stereo not shown) [Compound 197, (2-(2,6-dioxopiperidin-3-yl)-3-oxoisoindolin-5-yl)methyl (5-bromo-2-fluoro-4-methylphenyl)carbamate] showed an IC50 of under 100 nM. In the case of O=C1CCC(N2Cc3ccc(COC(=O)Nc4cc(F)c5c(c4)CCO5)cc3C2=O)C(=O)N1 (stereo not shown) [Compound 212, (2-(2,6-dioxopiperidin-3-yl)-3-oxoisoindolin-5-yl)methyl (7-fluoro-2,3-dihydrobenzofuran-5-yl)carbamate], the IC50 is reported as under 100 nM. CC1(c2ccc(NC(=O)OCc3ccc4c(c3)C(=O)N(C3CCC(=O)NC3=O)C4)cc2Cl)COC1 (stereo not shown) [Compound 236, (2-(2,6-dioxopiperidin-3-yl)-3-oxoisoindolin-5-yl)methyl (3-chloro-4-(3-methyloxetan-3-yl)phenyl)carbamate] was tested, and the IC50 was under 100 nM. O=C1CCC(N2Cc3ccc(COC(=O)NC45CC(C(F)F)(C4)C5)cc3C2=O)C(=O)N1 (stereo not shown) [Compound 219, (2-(2,6-dioxopiperidin-3-yl)-3-oxoisoindolin-5-yl)methyl (3-(difluoromethyl)bicyclo[1.1.1]pentan-1-yl) carbamate] was tested, and the IC50 was under 100 nM. Compound Cc1cc(F)c(NC(=O)OCc2ccc3c(c2)C(=O)N(C2CCC(=O)NC2=O)C3)cc1C (stereo not shown) [Compound 208, (2-(2,6-dioxopiperidin-3-yl)-3-oxoisoindolin-5-yl)methyl (2-fluoro-4,5-dimethylphenyl)carbamate] has an IC50 of 100 to 1000 nM. O=C1CCC(N2Cc3ccc(COC(=O)NC45CC(c6ccccc6F)(C4)C5)cc3C2=O)C(=O)N1 (stereo not shown) [Compound 174, (2-(2,6-dioxopiperidin-3-yl)-3-oxoisoindolin-5-yl)methyl (3-(2-fluorophenyl)bicyclo[1.1.1]pentan-1-yl) carbamate] showed an IC50 of under 100 nM. Compound Cc1cc(F)c(NC(=O)OCc2ccc3c(c2)C(=O)N(C2CCC(=O)NC2=O)C3)cc1F (stereo not shown) [Compound 213, (2-(2,6-dioxopiperidin-3-yl)-3-oxoisoindolin-5-yl)methyl (2,5-difluoro-4-methylphenyl)carbamate] has an IC50 of under 100 nM. Compound CC(C)Oc1ccc(F)c(NC(=O)OCc2ccc3c(c2)C(=O)N(C2CCC(=O)NC2=O)C3)c1 (stereo not shown) [Compound 221, (2-(2,6-dioxopiperidin-3-yl)-3-oxoisoindolin-5-yl)methyl (2-fluoro-5-isopropoxyphenyl)carbamate] has an IC50 of under 100 nM. Work on O=C1CCC(N2Cc3ccc(COC(=O)NC45CC(CF)(C4)C5)cc3C2=O)C(=O)N1 (stereo not shown) [Compound 202, (2-(2,6-dioxopiperidin-3-yl)-3-oxoisoindolin-5-yl)methyl (3-(fluoromethyl)bicyclo[1.1.1]pentan-1-yl) carbamate] yielded an IC50 of 100 to 1000 nM. For CCOc1ccc(F)c(NC(=O)OCc2ccc3c(c2)C(=O)N(C2CCC(=O)NC2=O)C3)c1 (stereo not shown) [Compound 223, (2-(2,6-dioxopiperidin-3-yl)-3-oxoisoindolin-5-yl)methyl (5-ethoxy-2-fluorophenyl)carbamate], the IC50 was under 100 nM. With O=C1CCC(N2Cc3ccc(COC(=O)NC45C6C7C4C4C5C6C74c4ccccc4)cc3C2=O)C(=O)N1 (stereo not shown) [Compound 225, (2-(2,6-dioxopiperidin-3-yl)-3-oxoisoindolin-5-yl)methyl (4-phenylcuban-1-yl)carbamate] the IC50 was under 100 nM. Cc1ccc(NC(=O)OCc2ccc3c(c2)C(=O)N(C2CCC(=O)NC2=O)C3)nc1Cl (stereo not shown) [Compound 183, (2-(2,6-dioxopiperidin-3-yl)-3-oxoisoindolin-5-yl)methyl (6-chloro-5-methylpyridin-2-yl)carbamate] was tested, and the IC50 was 100 to 1000 nM. For O=C1CCC(N2Cc3ccc(COC(=O)Nc4cc(F)c(OC(F)F)c(F)c4)cc3C2=O)C(=O)N1 (stereo not shown) [Compound 206, (2-(2,6-dioxopiperidin-3-yl)-3-oxoisoindolin-5-yl) methyl (4-(difluoromethoxy)-3,5-difluorophenyl)carbamate], the IC50 was 100 to 1000 nM. Work on Cc1cc(NC(=O)OCc2ccc3c(c2)C(=O)N(C2CCC(=O)NC2=O)C3)ncc1N1CCC[C@H]1C (stereo partly drawn) [Compound 237, (2-(2,6-dioxopiperidin-3-yl)-3-oxoisoindolin-5-yl)methyl (4-methyl-5-((R)-2-methylpyrrolidin-1-yl)pyridin-2-yl)carbamate] yielded an IC50 of under 100 nM. Work on O=C1CCC(N2Cc3ccc(COC(=O)Nc4cc(C5CC5)ccc4F)cc3C2=O)C(=O)N1 (stereo not shown) [Compound 207, (2-(2,6-dioxopiperidin-3-yl)-3-oxoisoindolin-5-yl)methyl (5-cyclopropyl-2-fluorophenyl) carbamate] yielded an IC50 of under 100 nM. COc1cc(NC(=O)OCc2ccc3c(c2)C(=O)N(C2CCC(=O)NC2=O)C3)c(F)cc1C (stereo not shown) [Compound 229, (2-(2,6-dioxopiperidin-3-yl)-3-oxoisoindolin-5-yl)methyl (2-fluoro-5-methoxy-4-methylphenyl)carbamate] was tested, and the IC50 was under 100 nM. CC(C)(C)Oc1ccc(F)c(NC(=O)OCc2ccc3c(c2)C(=O)N(C2CCC(=O)NC2=O)C3)c1 (stereo not shown) [Compound 222, (2-(2,6-dioxopiperidin-3-yl)-3-oxoisoindolin-5-yl)methyl (5-(tert-butoxy)-2-fluorophenyl)carbamate] was tested, and the IC50 was 100 to 1000 nM. Cc1cc(F)c(NC(=O)OCc2ccc3c(c2)C(=O)N(C2CCC(=O)NC2=O)C3)cc1OC(F)(F)F (stereo not shown) [Compound 204, (2-(2,6-dioxopiperidin-3-yl)-3-oxoisoindolin-5-yl) methyl (2-fluoro-4-methyl-5-(trifluoromethoxy)phenyl)carbamate] was tested, and the IC50 was 100 to 1000 nM. Cc1ccc(NC(=O)OCc2ccc3c(c2)C(=O)N(C2CCC(=O)NC2=O)C3)c(F)c1Cl (stereo not shown) [Compound 179, (2-(2,6-dioxopiperidin-3-yl)-3-oxoisoindolin-5-yl) methyl (3-chloro-2-fluoro-4-methylphenyl)carbamate] was tested, and the IC50 was 100 to 1000 nM. Compound CC(C)(O)c1ccc(NC(=O)OCc2ccc3c(c2)C(=O)N(C2CCC(=O)NC2=O)C3)cn1 (stereo not shown) [Compound 199, (2-(2,6-dioxopiperidin-3-yl)-3-oxoisoindolin-5-yl)methyl (6-(2-hydroxypropan-2-yl)pyridin-3-yl)carbamate] has an IC50 of 100 to 1000 nM. In the case of C[C@@H]1CCCN1c1cnc(NC(=O)OCc2ccc3c(c2)C(=O)N(C2CCC(=O)NC2=O)C3)c(F)c1 (stereo partly drawn) [Compound 232, (2-(2,6-dioxopiperidin-3-yl)-3-oxoisoindolin-5-yl)methyl (3-fluoro-5-((R)-2-methylpyrrolidin-1-yl)pyridin-2-yl)carbamate], the IC50 is reported as under 100 nM. With CCc1cccc(NC(=O)OCc2ccc3c(c2)C(=O)N(C2CCC(=O)NC2=O)C3)c1 (stereo not shown) [Compound 220, (2-(2,6-dioxopiperidin-3-yl)-3-oxoisoindolin-5-yl)methyl (3-ethylphenyl)carbamate] the IC50 was 100 to 1000 nM. CC1(c2ccc(NC(=O)OCc3ccc4c(c3)C(=O)N(C3CCC(=O)NC3=O)C4)cc2F)COC1 (stereo not shown) [Compound 240, (2-(2,6-dioxopiperidin-3-yl)-3-oxoisoindolin-5-yl)methyl (3-fluoro-4-(3-methyloxetan-3-yl)phenyl)carbamate] gave an IC50 of 100 to 1000 nM. For O=C1CCC(N2Cc3ccc(COC(=O)Nc4cccc(Cl)c4)cc3C2=O)C(=O)N1 (stereo not shown) [Compound 239, (2-(2,6-dioxopiperidin-3-yl)-3-oxoisoindolin-5-yl)methyl (3-chlorophenyl)carbamate], the IC50 was 100 to 1000 nM. With CC(C)(C)[C@H]1C[C@H](NC(=O)OCc2ccc3c(c2)C(=O)N(C2CCC(=O)NC2=O)C3)C1 (stereo partly drawn) [Compound 185, trans-(2-(2,6-dioxopiperidin-3-yl)-3-oxoisoindolin-5-yl)methyl ((1s,3s)-3-(tert-butyl)cyclobutyl)carbamate] the IC50 was 100 to 1000 nM.
